Data on one compound can be found in paper PMC5938390, “Tachyplesin Causes Membrane Instability That Kills Multidrug-Resistant Bacteria by Inhibiting the 3-Ketoacyl Carrier Protein Reductase FabG” (Frontiers in Microbiology, 2018).

Structures are written as SMILES. Positions of bridges follow the written chain, without caps; N, C: chain ends. Residues, ends and D or L forms follow the SMILES beside them.

For one assay, the system named is K. pneumoniae 5. Kind of assay: MIC against clinical isolate. In kind it is cell-based, Klebsiella pneumoniae.
In a further assay the test system is E. coli 513. Description: Transcriptome analysis (RNA sequencing, FPKM, DESeq). The settings on record: Ec; Ta 16 μg/ml, 30 min, 37°C. In kind it is cell-based, Escherichia coli. Here is the method:
The Vitek 32 system (bioMerieux, France) and 16S rDNA sequencing were used to verify the clinical isolates A. baumannii 1408, P. aeruginosa 1409, Klebsiella pneumoniae 5 and E. coli 513, which were grown overnight in Luria-Bertani (LB) medium at 37°C with constant shaking at 220 rpm to reach the middle of their logarithmic growth phase. […] After the addition of 2 volumes of RNAprotect Bacteria Reagent (QIAGEN) to stabilized RNA, samples were vortexed for 5 s, incubated for 5 min at room temperature (15–25°C) and collected by centrifugation at 4°C for 5 min at 4000 g.
RNA isolation and sequencing were performed by Novogene Bioinformatics Technology Co., Ltd. (Beijing, China) as previously described ([Liu B. et al., 2014]). Clean reads were mapped to the corresponding bacterial genomes using Bowtie 2 software ([Langmead and Salzberg, 2012]). Gene expression was calculated using the FPKM (expected number of fragments per kilobase of transcript sequence per millions of base pairs sequenced) method with HTSeq software (union model) ([Anders et al., 2015]). Differentially expressed genes were selected based on the DESeq R package with Padj values < 0.05 ([Anders and Huber, 2010]). KEGG pathway analysis was performed using KOBAS (2.0), and the corrected p value cut-off was set at 0.05 ([Li et al., 2015]).

`CC[C@H](C)[C@@H]1NC(=O)CNC(=O)[C@H](CCCNC(=N)N)NC(=O)[C@H](Cc2ccc(O)cc2)NC(=O)[C@@H]2CSSC[C@H](NC1=O)C(=O)N[C@@H](Cc1ccc(O)cc1)C(=O)N[C@@H](CCCNC(=N)N)C(=O)N[C@@H](CCCCN)C(=O)N[C@H](C(=O)N[C@@H](CCCNC(=N)N)C(N)=O)CSSC[C@H](NC(=O)[C@H](Cc1c[nH]c3ccccc13)NC(=O)[C@@H](N)CCCCN)C(=O)N[C@@H](Cc1ccccc1)C(=O)N[C@@H](CCCNC(=N)N)C(=O)N[C@@H](C(C)C)C(=O)N2` [tachyplesin III] (H-KWCFRVCYRGICYRKCR-NH2; disulfide 3-16, 7-12 (inferred); N-terminus and C-terminus assumed): the “16 μg/ml tachyplesin III expressed as multiple of MIC” value in the assay on K. pneumoniae 5 is recorded as 1/2. Further, in the assay with E. coli 513, the “Fold change after Ta treatment, gene b1093 (3-ketoacyl-acyl carrier protein reductase)” value is 1.11 and the “Fold change after Ta treatment, gene b3846 (3-hydroxyacyl-CoA dehydrogenase)” value was found to be 2.3.
